{"source": "the SangsterLogP compilation", "data": [{"smiles": "CC1=C(C(=O)O)N2C(=O)C(NC(=O)C(NC(=O)c3nn(-c4ccc(Cl)cc4)c(=O)[nH]c3=O)c3ccccc3)C2SC1", "note": "(centres undefined)", "values": [{"measurement": "logP", "result": 4.91}]}, {"smiles": "CC1=C(C(=O)O)N2C(=O)C(NC(=O)C(NC(=O)c3nn(-c4ccc(Cl)cc4Cl)c(=O)[nH]c3=O)c3ccccc3)C2SC1", "note": "(centres undefined)", "values": [{"measurement": "logP", "result": 4.97}]}, {"smiles": "CCOc1ccc(-n2nc(C(=O)NC(C(=O)NC3C(=O)N4C(C(=O)O)=C(C)CSC34)c3ccccc3)c(=O)[nH]c2=O)cc1", "note": "(centres undefined)", "values": [{"measurement": "logP", "result": 5.16}]}, {"smiles": "CC1=C(C(=O)O)N2C(=O)C(NC(=O)C(NC(=O)c3nn(-c4ccc(C)cc4)c(=O)[nH]c3=O)c3ccccc3)C2SC1", "note": "(centres undefined)", "values": [{"measurement": "logP", "result": 4.8}]}, {"smiles": "CC1=C(C(=O)O)N2C(=O)C(NC(=O)C(NC(=O)c3nn(-c4ccccc4)c(=O)[nH]c3=O)c3ccccc3)C2SC1", "note": "(centres undefined)", "values": [{"measurement": "logP", "result": 3.19}]}, {"smiles": "CC1=C(C(=O)O)N2C(=O)C(NC(=O)C(NC(=O)c3nn(-c4ccc(Cl)cc4Cl)c(=O)[nH]c3=O)c3ccc(O)cc3)C2SC1", "note": "(centres undefined)", "values": [{"measurement": "logP", "result": 3.08}]}, {"smiles": "CC1=C(C(=O)O)N2C(=O)C(NC(=O)C(NC(=O)c3nn(-c4ccc(C)cc4)c(=O)[nH]c3=O)c3cccc(O)c3)C2SC1", "note": "(centres undefined)", "values": [{"measurement": "logP", "result": 2.53}]}, {"smiles": "CC(=O)c1ccc(-n2nc(C(=O)NC(C(=O)NC3C(=O)N4C(C(=O)O)=C(C)CSC34)c3cccc(O)c3)c(=O)[nH]c2=O)cc1", "note": "(centres undefined)", "values": [{"measurement": "logP", "result": -0.04}]}, {"smiles": "CC1=C(C(=O)O)N2C(=O)[C@@H](NC(=O)[C@H](NC(=O)c3nn(-c4ccccc4)c(=O)[nH]c3=O)c3ccc(O)cc3)[C@H]2SC1", "values": [{"measurement": "logP", "result": 1.26}]}, {"smiles": "CC1=C(C(=O)O)N2C(=O)C(NC(=O)C(NC(=O)c3nn(-c4ccc(F)c(Cl)c4)c(=O)[nH]c3=O)c3ccc(O)cc3)C2SC1", "note": "(centres undefined)", "values": [{"measurement": "logP", "result": 3.1}]}, {"smiles": "CC1=C(C(=O)O)N2C(=O)C(NC(=O)C(NC(=O)c3nn(-c4ccc([N+](=O)[O-])cc4)c(=O)[nH]c3=O)c3ccccc3)C2SC1", "note": "(centres undefined)", "values": [{"measurement": "logP", "result": 3.15}]}, {"smiles": "CC(=O)c1ccc(-n2nc(C(=O)NC(C(=O)NC3C(=O)N4C(C(=O)O)=C(C)CSC34)c3ccccc3)c(=O)[nH]c2=O)cc1", "note": "(centres undefined)", "values": [{"measurement": "logP", "result": 2.71}]}, {"smiles": "COc1ccc(-n2nc(C(=O)NC(C(=O)NC3C(=O)N4C(C(=O)O)=C(C)CSC34)c3ccccc3)c(=O)[nH]c2=O)cc1", "note": "(centres undefined)", "values": [{"measurement": "logP", "result": 3.87}]}, {"smiles": "CC1=C(C(=O)O)N2C(=O)C(NC(NC(=O)c3nn(-c4ccc(S(N)(=O)=O)cc4)c(=O)[nH]c3=O)c3ccc(O)cc3)C2SC1", "note": "(centres undefined)", "values": [{"measurement": "logP", "result": -0.39}]}]}
